Reference: US7585886B2, “Pyrrolidine derivative or salt thereof” (Astellas Pharma Inc., priority 2005, dated 2009)
Structures can show the parent of a compound that is named as a salt. Where two headings read alike, the source gives them in different places.

Tests used:
human CaSR = target: T1, human CaSR (Homo sapiens, UniProt P41180); assay: Human calcium sensing receptor (CaSR) agonistic activity test (FLIPR, Fluo-3 intracellular Ca2+); assay type: cell-based
T1 construct: human CaSR open reading frame (ORF) was contained in the pcDNA3.1/Zeo(+) vector; expressed in transfected cells
T1 sequence (P41180 20-1078): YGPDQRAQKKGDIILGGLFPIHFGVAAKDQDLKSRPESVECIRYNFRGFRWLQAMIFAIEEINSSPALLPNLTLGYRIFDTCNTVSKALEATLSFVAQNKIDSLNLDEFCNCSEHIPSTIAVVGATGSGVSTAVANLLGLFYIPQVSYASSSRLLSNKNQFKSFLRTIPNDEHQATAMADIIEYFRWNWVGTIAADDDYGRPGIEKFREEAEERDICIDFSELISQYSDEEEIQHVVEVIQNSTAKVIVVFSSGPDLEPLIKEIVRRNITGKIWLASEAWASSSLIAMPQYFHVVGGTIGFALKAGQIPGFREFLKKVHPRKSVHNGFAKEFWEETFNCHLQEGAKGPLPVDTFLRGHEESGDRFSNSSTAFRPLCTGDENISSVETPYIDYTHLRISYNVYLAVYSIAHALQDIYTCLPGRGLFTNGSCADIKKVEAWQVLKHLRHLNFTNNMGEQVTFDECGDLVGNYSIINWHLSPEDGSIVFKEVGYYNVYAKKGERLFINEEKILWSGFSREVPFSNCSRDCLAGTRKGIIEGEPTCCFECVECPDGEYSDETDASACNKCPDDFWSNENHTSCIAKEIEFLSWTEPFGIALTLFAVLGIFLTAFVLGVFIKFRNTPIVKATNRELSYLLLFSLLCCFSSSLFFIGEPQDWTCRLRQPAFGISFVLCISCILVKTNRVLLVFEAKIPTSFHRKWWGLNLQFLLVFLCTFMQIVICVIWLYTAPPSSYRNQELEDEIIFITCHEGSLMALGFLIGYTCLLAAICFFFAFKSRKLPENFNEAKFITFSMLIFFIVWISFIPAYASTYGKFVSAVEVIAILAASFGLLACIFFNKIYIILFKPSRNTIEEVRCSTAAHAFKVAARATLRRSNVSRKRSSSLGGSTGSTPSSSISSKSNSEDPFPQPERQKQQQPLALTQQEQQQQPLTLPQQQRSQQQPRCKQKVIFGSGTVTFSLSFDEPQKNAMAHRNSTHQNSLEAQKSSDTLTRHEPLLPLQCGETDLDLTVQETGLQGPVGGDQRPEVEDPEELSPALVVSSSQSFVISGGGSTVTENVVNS
Excerpt: Test 1. Human Calcium Sensing Receptor (CaSR) Agonistic Activity Test
• 1) Preparation of Human CaSR Expression Vector
A DNA fragment coding for human CaSR was cloned in the standard method. Illustratively, using 203 to 2387 of NM_000388 as a DNA fragment D4, and 2210 to 3633 as a DNA fragment B2, they were amplified using a human kidney cDNA (mfd. by Invitrogen) as the template and using a DNA polymerase (a registered trade name: Pyrobest, mfd. by Takara Bio), and respectively cloned into a pCR2.1 vector using a pCR2.1-Topo vector (mfd. by Invitrogen). Next, DNA fragments prepared by digesting pCR2.1-D4 with SpeI and XbaI were inserted into the same sites of pcDNA3.1/Zeo(+) vector. Successively, the fragments prepared by digesting pCR2.1-B2 with SacI and XbaI were inserted into the SacI and XbaI sites of previously prepared pcDNA3.1/Zeo(+)-D4 (SpeI-XbaI), thereby obtaining a human CaSR expression vector pcDNA3.1/Zeo(+)-hCaSR in which human CaSR open reading frame (ORF) was contained in the pcDNA3.1/Zeo(+) vector. • 2) Preparation of Human CaSR Expression Cell
The human CaSR expression vector was transferred into HEK 293 cell using a transfection reagent (registered trademark: FuGene 6, mfd. by Roche Diagnostics). After the gene transfer, this was cultured in DMEM (mfd. by Invitrogen) medium containing 40 μg/ml Zeocin (registered trademark) (mfd. by Invitrogen) and 10% fetal bovine serum at 37° C. for 2 weeks in the presence of 5% CO2, thereby obtaining Zeocin-resistant clones. An human CaSR stably expressing HEK 293 clone was obtained from these clones by selection using the responsiveness to extracellular Ca^2+ as the index. • 3) Human CaSR Agonistic Activity Test
The HEK 293 cell stably expressing human CaSR was inoculated into a poly-D-lysine-coated black clear bottom 96 well plate (mfd. by BD Bioscience). Hanks' balanced salt solution (HBSS) (Ca^2+ (−), Mg^2+ (−), mfd. by Invitrogen) containing 20 mM HEPES (2-[4-(2-hydroxyethyl)-1-piperazinyl]ethanesulfonic acid) buffer (pH 7.4), 2.5 mM probenecid (mfd. by Sigma) and 0.1% bovine serum albumin was prepared as a washing buffer. After the inoculation and subsequent overnight culturing, the medium was discarded, the washing buffer supplemented with 1 mM CaCl2 and 10 μM Fluo-3 AM (trade name, mfd by DOJINDO) was added thereto in 100 μl per well portions, and then the incubation was carried out at 37° C. for 1Hour in the presence of 5% CO2. This was washed twice with 200 μl of the washing buffer, replaced by 100 μl of the washing buffer supplemented with 0.5 mM CaCl2 and allowed to stand still for 10 minutes, and then the responsiveness to each compound to be evaluated was detected using a plate reader for fluorometry image analysis use (registered trademark: FLIPR, mfd. by Molecular Devices). In this connection, the compound to be evaluated was used by optionally diluting with the washing buffer supplemented with 0.5 mM Ca^2+.
The human CaSR agonistic activity strength of each compound to be evaluated was calculated by defining the solvent group as 0% and the 2 mM Ca^2+ in final concentration group as 100%, and the compound concentration showing 50% activity (EC50) was calculated from a concentration-activity curve by the method of least squares.

CYP2D6 [1] = target: T2, CYP2D6 (Homo sapiens, UniProt P10635); assay: Human CYP2D6 inhibition test (fluorescence substrate AMMC); assay type: in vitro ADME; parameters: purchased BD Gentest 456217
Experimental: Test 3. Human CYP2D6 Inhibition Test
Inhibitory activity evaluation for CYP2D6 was carried out by measuring it in accordance, roughly, with a reference (“Drug Metabolism and Disposition”, 2001, vol. 29, p. 1196-1200).
Final concentrations of the reagents in the enzyme reaction solution were respectively ser to CYP2D6=[…] (mfd. by BD Gentest, Cat. No.: 456217), reduced type nicotinamide adenine dinucleotide phosphate (NADPH) regeneration system (0.0081 mM nicotinamide adenine dinucleotide phosphate (NADP+), 0.41 mM glucose-6-phosphate, 0.41 mM MgCl2, […] glucose-6-phosphate dehydrogenase), and a fluorescence substrate AMMC=1.5 μM, 100 mM potassium phosphate buffer (pH 7.4). Each compound was made into a 50% acetonitrile solution and added to the enzyme reaction solution (acetonitrile final concentration 2.5%). The enzyme reaction was carried out at 37° C. for 30 minutes, the reaction was stopped using a stopping liquid (0.1 M tris(hydroxymethyl)aminomethane (Tris-base):acetonitrile=20:80), and then fluorescence intensity was measured. The concentration showing 50% inhibition (IC50) was calculated from the thus obtained fluorescence intensity, by defining the enzyme activity at the time of no compound addition as 100%.

[2] = Measurement of rat plasma calcium concentration after single oral administration; assay type: in vivo; settings: normal male rats, 3 mg/kg oral administration
Experimental: Test 2. Measurement of Rat Plasma Calcium Concentration and Plasma PTH Concentration
The compounds of the invention were administered to rats, and their influences upon the plasma calcium concentration and plasma PTH concentration were examined. The test was carried out by single oral administration of the compounds 5 or 6 normal male rats.
As a vehicle group, an MC solution prepared by adding 0.5% methyl cellulose (MC) solution or ethanol to a final concentration of 5% was administered at a dose of 5 ml/kg. As the comparative control, cinacalcet was dissolved in the MC solution and administered at a dose of 3 mg/kg. Each of the compounds, of the invention was dissolved or suspended the MC solution, or dissolved in ethanol and then diluted with the MC solution as occasion demands, and administered at a dose of 1, 3 or 10 mg/kg.
Blood samples were collected from the orbital venous plexus under ether anesthesia before the administration and 2Hours, 4Hours, or 8Hours in some cases, after the administration, and the plasma calcium concentration was measured using Calcium E-Test Wako (mfd. by Wako Pure Chemical Industries), and the plasma PTH concentration using Rat Intact PTH ELISA Kit (mfd. by Immutopics) or Rat Bioactive Intact PTH ELISA Kit (mfd. by Immutopics).

CYP2D6 [3] = target: T2, CYP2D6; settings: reported, Non-patent Reference 4; cited from earlier work
[4] = HEK 293 cell stably expressing human CaSR, 0.5 mM Ca2+ buffer, solvent group 0%, 2 mM Ca2+ group 100%, read-out: EC50 (compound concentration showing 50% activity), human CaSR agonistic activity
[5] = recombinant CYP2D6, AMMC 1.5 μM, 37° C. 30 minutes, read-out: IC50 (concentration showing 50% inhibition), CYP2D6

T2 sequence (P10635 whole entry): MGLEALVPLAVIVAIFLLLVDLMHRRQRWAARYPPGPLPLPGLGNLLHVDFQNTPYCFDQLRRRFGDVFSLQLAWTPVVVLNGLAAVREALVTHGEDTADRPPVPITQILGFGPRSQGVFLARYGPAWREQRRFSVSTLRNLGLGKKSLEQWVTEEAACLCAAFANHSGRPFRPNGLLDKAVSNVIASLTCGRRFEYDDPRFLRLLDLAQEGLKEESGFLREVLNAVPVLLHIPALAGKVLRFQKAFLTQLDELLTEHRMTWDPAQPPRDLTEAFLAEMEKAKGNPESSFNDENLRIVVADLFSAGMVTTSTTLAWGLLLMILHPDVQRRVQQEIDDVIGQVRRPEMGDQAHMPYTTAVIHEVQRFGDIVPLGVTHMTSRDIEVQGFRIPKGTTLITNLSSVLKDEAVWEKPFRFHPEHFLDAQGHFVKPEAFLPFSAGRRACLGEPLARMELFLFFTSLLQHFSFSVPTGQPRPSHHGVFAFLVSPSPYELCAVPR

EC50 (human CaSR; [4]) | IC50 (CYP2D6 [1]; [5]) | SMILES | further results
3.6 nM |  | C[C@@H](NC[C@H]1CN(c2c(F)cc(C(=O)O)cc2F)C[C@@H]1c1ccccc1)c1cccc2ccccc12 [Example 31, 3,5-difluoro-4-[(3S,4S)-3-({[(1R)-1-(1-naphthyl)ethyl]amino}methyl)-4-phenylpyrrolidin-1-yl]benzoic acid hydrochloride] | IC50 at 30 min (CYP2D6 [1]; human, recombinant CYP2D6 (BD Gentest, Cat. No. 456217), pH 7.4, probe AMMC 1.5 μM, recombinant CYP2D6, AMMC 1.5 μM, 37° C. 30 minutes, read-out: IC50 (concentration showing 50% inhibition), CYP2D6): ≥ 6000 nM
4.9 nM | ≥ 6000 nM | C[C@@H](NC[C@H]1CN(C(=O)Nc2ccc(C(=O)O)cc2)C[C@@H]1c1ccccc1)c1cccc2ccccc12 [Example 41, 4-({[(3S,4S)-3-({[(1R)-1-(1-naphthyl)ethyl]amino}methyl)-4-phenylpyrrolidin-1-yl]carbonyl}amino)benzoic acid hydrochloride] | 
3.1 nM | ≥ 6000 nM | COc1cc(C(=O)O)ccc1NC(=O)N1C[C@H](CN[C@H](C)c2cccc3ccccc23)[C@@H](c2ccccc2)C1 [Example 45, 3-methoxy-4-({[(3S,4S)-3-({[(1R)-1-(1-naphthyl)ethyl]amino}methyl)-4-phenylpyrrolidin-1-yl]carbonyl}amino)benzoic acid hydrochloride] | 
5.2 nM | ≥ 6000 nM | C[C@@H](NC[C@H]1CN(C(=O)c2ccc(-c3ccsc3C(=O)O)o2)C[C@@H]1c1ccccc1)c1cccc2ccccc12 [Example 98] | 
28 nM | ≥ 6000 nM | C[C@@H](NC[C@H]1CN(C(=O)CC(C)(C)CC(=O)O)C[C@@H]1c1ccccc1)c1cccc2ccccc12 [Example 109] | Rat plasma calcium concentration reducing ratio (%) 4 hours after administration [2]: 17%
15 nM |  | C[C@@H](NC[C@H]1CN(c2ccc(-c3nnn[nH]3)cc2)C[C@@H]1c1ccccc1)c1cccc2ccccc12 [Example 130] | 
16 nM |  | Cc1cccc([C@H]2CN(c3c(F)cc(C(=O)O)cc3F)C[C@@H]2CN[C@H](C)c2cccc3ccccc23)c1 [Example 171] | Rat plasma calcium concentration reducing ratio (%) 4 hours after administration [2]: 20%
3.5 nM | ≥ 6000 nM | COc1cc(C(=O)O)ccc1NC(=O)N1C[C@H](CN[C@H](C)c2cccc3ccccc23)[C@@H](c2cccc(C)c2)C1 [Example 183] | Rat plasma calcium concentration reducing ratio (%) 4 hours after administration [2]: 20%

The next lines start with the compound.

SMILES | EC50 (human CaSR; [4]) | IC50 (CYP2D6 [1]; [5]) | further results
C[C@@H](NC[C@H]1CN(C(=O)Oc2ccc(C(=O)O)cc2)C[C@@H]1c1ccccc1)c1cccc2ccccc12.Cl [Example 33, 4-({[(3S,4S)-3-({[(1R)-1-(1-naphthyl)ethyl]amino}methyl)-4-phenylpyrrolidin-1-yl]carbonyl}oxy)benzoic acid hydrochloride] |  |  | EC50 (human CaSR): 2.3 nM; Rat plasma calcium concentration reducing ratio (%) 4 hours after administration [2]: 21%
C[C@@H](NC[C@H]1CN(C(=O)CCCCC(=O)O)C[C@@H]1c1cccc(C(F)(F)F)c1)c1cccc2ccccc12 [Example 48, 6-{(3S,4S)-3-({[(1R)-1-(1-naphthyl)ethyl]amino}methyl)-4-[3-(trifluoromethyl)phenyl]pyrrolidin-1-yl}-6-oxohexanoic acid hydrochloride] | 4 nM |  | 
C[C@@H](NC[C@H]1CN(C(=O)Oc2ccc(C(=O)O)cc2)C[C@@H]1c1cccc(F)c1)c1cccc2ccccc12 [Example 174] |  |  | EC50 (human CaSR): 3.4 nM
C[C@@H](NC[C@H]1CN(C(=O)Oc2ccc(C(=O)O)cc2)C[C@@H]1c1cccc(F)c1F)c1cccc2ccccc12 [Example 179] |  |  | EC50 (human CaSR): 0.77 nM; IC50 (CYP2D6 [1]): ≥ 6000 nM
C[C@@H](NCCCc1cccc(C(F)(F)F)c1)c1cccc2ccccc12 [cinacalcet] |  |  | activity to inhibit CYP2D6 (in words) (CYP2D6 [3]): strong activity to inhibit CYP2D6
CC(NC[C@H]1CN(C(=O)Oc2ccc(C(=O)O)cc2)C[C@@H]1c1ccccc1)c1csc2ccccc12 (stereo partly shown) [compound 53] | 5.2 nM |  | 
